pIC50: −log10 of the molar value. Like-named read-outs stand apart in the source and are kept apart here.
System: 134 cancer cell lines
Assay: Cell viability assay (ATPlite, 72 hours), IC50 on cancer cell line panel

Cc1cc(Nc2ncc(Cl)c(Nc3ccccc3S(=O)(=O)C(C)C)n2)c(OC(C)C)cc1C1CCNCC1 [ceritinib]
pIC50 (Homo sapiens, MOLT-4, read-out: IC50 in cell proliferation assay, MOLT-4 cell line): 5.43 | pIC50 (Homo sapiens, MV4-11, read-out: IC50 in cell proliferation assay, MV4-11 cell line (FLT3 ITD)): 5.91 | pIC50 (Homo sapiens, MeWo, read-out: IC50 in cell proliferation assay, MeWo cell line): 5.50 | pIC50 (Homo sapiens, NCCIT, read-out: IC50 in cell proliferation assay, NCC-IT cell line): 5.51 | pIC50 (Homo sapiens, NCI-H82, read-out: IC50 in cell proliferation assay, cell line NCI-H82): 5.80 | pIC50 (Homo sapiens, NCI-H460, read-out: IC50 in cell proliferation assay, NCI-H460 cell line): 5.50 | pIC50 (Homo sapiens, NCI-H661, read-out: IC50 in cell proliferation assay, NCI-H661 cell line): 5.46 | pIC50 (Homo sapiens, NCI-H716, read-out: IC50 in cell proliferation assay, cell line NCI-H716 (FGFR2-COL14A1)): 5.81 | pIC50 (Homo sapiens, NCI-H1650, read-out: IC50 in cell proliferation assay, NCI-H1650 cell line (EGFR exon19del)): 5.47 | pIC50 (Homo sapiens, NCI-H1975, read-out: IC50 in cell proliferation assay, NCI-H1975 cell line (EGFR p.L858R + p.T790M)): 5.72 | pIC50 (Homo sapiens, NCI-H2228, read-out: IC50 in cell proliferation assay, NCI-H2228 cell line (EML4-ALK)): 7.42 | pIC50 (Homo sapiens, OVCAR-3, read-out: IC50 in cell proliferation assay, cell line OVCAR-3): 5.29 | pIC50 (Homo sapiens, PFSK-1, read-out: IC50 in cell proliferation assay, cell line PFSK-1): 5.81 | pIC50 (Homo sapiens, RL95-2, read-out: IC50 in cell proliferation assay, cell line RL95-2 (EGFR p.A289V)): 5.76 | pIC50 (Homo sapiens, RPMI-7951, read-out: IC50 in cell proliferation assay, cell line RPMI-7951 (BRAF p.V600E)): 5.43 | pIC50 (Homo sapiens, RS4-11, read-out: IC50 in cell proliferation assay, cell line RS4;11): 5.97 | pIC50 (Homo sapiens, Rec1, read-out: IC50 in cell proliferation assay, cell line REC-1): 5.65 | pIC50 (Homo sapiens, SHP77, read-out: IC50 in cell proliferation assay, cell line SHP-77): 5.47 | pIC50 (Homo sapiens, SK-BR-3, read-out: IC50 in cell proliferation assay, cell line SK-BR-3 (ERBB2 amplification)): 5.41 | pIC50 (Homo sapiens, SK-N-AS, read-out: IC50 in cell proliferation assay, cell line SK-N-AS): 5.68 | pIC50 (Homo sapiens, SK-N-FI, read-out: IC50 in cell proliferation assay, cell line SK-N-FI): 6.27 | pIC50 (Homo sapiens, SK-N-MC, read-out: IC50 in cell proliferation assay, cell line SK-N-MC): 6.15 | pIC50 (Homo sapiens, SK-N-SH, read-out: IC50 in cell proliferation assay, cell line SK-N-SH (ALK p.F1174L)): 6.06 | pIC50 (Homo sapiens, SNU-5, read-out: IC50 in cell proliferation assay, cell line SNU-5 (MET amplification)): 5.41 | pIC50 (Homo sapiens, SNU-16, read-out: IC50 in cell proliferation assay, cell line SNU-16 (FGFR2 amplification)): 5.42 | pIC50 (Homo sapiens, SNU-C2B, read-out: IC50 in cell proliferation assay, cell line SNU-C2B (EGFR p.R165Q)): 5.60 | pIC50 (Homo sapiens, SU-DHL-1, read-out: IC50 in cell proliferation assay, cell line SU-DHL-1 (NPM1-ALK)): 6.72 | pIC50 (Homo sapiens, SU-DHL-6, read-out: IC50 in cell proliferation assay, cell line SU-DHL-6): 5.53 | pIC50 (Homo sapiens, SUP-T1, read-out: IC50 in cell proliferation assay, cell line SUP-T1): 5.46 | pIC50 (Homo sapiens, SW48, read-out: IC50 in cell proliferation assay, cell line SW48 (EGFR p.G719S)): 5.89 | pIC50 (Homo sapiens, SW480, read-out: IC50 in cell proliferation assay, cell line SW480): 5.61 | pIC50 (Homo sapiens, SW626, read-out: IC50 in cell proliferation assay, cell line SW626): 5.47 | pIC50 (Homo sapiens, SW780, read-out: IC50 in cell proliferation assay, cell line SW780 (FGFR3-BAIAP2L1)): 5.68 | pIC50 (Homo sapiens, SW837, read-out: IC50 in cell proliferation assay, cell line SW837): 5.53 | pIC50 (Homo sapiens, SW872, read-out: IC50 in cell proliferation assay, cell line SW872 (BRAF p.V600E)): 5.56 | pIC50 (Homo sapiens, SW900, read-out: IC50 in cell proliferation assay, cell line SW900): 5.63 | pIC50 (Homo sapiens, SW948, read-out: IC50 in cell proliferation assay, cell line SW948): 5.64 | pIC50 (Homo sapiens, SW982, read-out: IC50 in cell proliferation assay, cell line SW982 (BRAF p.V600E)): 5.38 | pIC50 (Homo sapiens, SW-620, read-out: IC50 in cell proliferation assay, cell line SW620): 5.81 | pIC50 (Homo sapiens, T98G, read-out: IC50 in cell proliferation assay, cell line T98G): 5.33 | pIC50 (Homo sapiens, TCC-SUP, read-out: IC50 in cell proliferation assay, cell line TCCSUP): 5.42 | pIC50 (Homo sapiens, THP-1, read-out: IC50 in cell proliferation assay, cell line THP-1): 5.32 | pIC50 (Homo sapiens, U2OS, read-out: IC50 in cell proliferation assay, cell line U2OS): 5.41 | pIC50 (Homo sapiens, U-87 MG, read-out: IC50 in cell proliferation assay, cell line U-87MG ATCC): 5.35 | pIC50 (Homo sapiens, U-118-MG, read-out: IC50 in cell proliferation assay, cell line U-118MG): 5.41 | pIC50 (Homo sapiens, UMUC3, read-out: IC50 in cell proliferation assay, cell line UM-UC-3): 5.59 | pIC50 (Hs766T, read-out: IC50 in cell proliferation assay, Hs 766T cell line): 5.45 | pIC50 (L-82, read-out: IC50 in cell proliferation assay, L-82 cell line (NPM1-ALK)): 7.48 | pIC50 (Rh30, read-out: IC50 in cell proliferation assay, cell line Rh30): 5.99 | pIC50 (read-out: IC50 in cell proliferation assay, 11-18 cell line (EGFR p.L858R)): 5.68 | pIC50 (read-out: IC50 in cell proliferation assay, Hs 852.T cell line): 5.73 | pIC50 (read-out: IC50 in cell proliferation assay, JAR cell line): 5.45 | pIC50 (read-out: IC50 in cell proliferation assay, cell line 5637): 5.60 | pIC50 (read-out: IC50 in cell proliferation assay, cell line A-388): 5.44 | pIC50 (read-out: IC50 in cell proliferation assay, cell line DB): 5.40 | pIC50 (read-out: IC50 in cell proliferation assay, cell line DEL (NPM1-ALK)): 7.21 | pIC50 (read-out: IC50 in cell proliferation assay, cell line ES-2 (BRAF p.V600E)): 5.55 | pIC50 (read-out: IC50 in cell proliferation assay, cell line PA-1): 5.68 | pIC50 (read-out: IC50 in cell proliferation assay, cell line PC-3): 5.39 | pIC50 (read-out: IC50 in cell proliferation assay, cell line RD): 5.77 | pIC50 (read-out: IC50 in cell proliferation assay, cell line RKO (BRAF p.V600E)): 5.79 | pIC50 (read-out: IC50 in cell proliferation assay, cell line RL): 5.39 | pIC50 (read-out: IC50 in cell proliferation assay, cell line RT-4 (FGFR3-TACC3)): 5.39 | pIC50 (read-out: IC50 in cell proliferation assay, cell line SR (NPM1-ALK)): 6.70 | pIC50 (read-out: IC50 in cell proliferation assay, cell line T24): 5.39 | pIC50 (read-out: IC50 in cell proliferation assay, cell line TT (RET p.C634W)): 5.42 | pIC50 (read-out: IC50 in cell proliferation assay, cell line VA-ES-BJ): 5.37
